From PubChem BioAssay (NCI)
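Assay format: 96-well plates, 48-hour exposure. TGI is the concentration that stops growth completely.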

What was measured:
Test in all cases: inhibition of tumour cell growth, NCI panel, 48 h
[1] = system: 786-0 renal
[2] = system: A498 renal
[3] = system: A549 NSCLC
[4] = system: ACHN renal
[5] = system: BT-549 breast
[6] = system: CAKI-1 renal
[7] = system: CCRF-CEM leukemia
[8] = system: COLO 205 colon
[9] = system: DU-145 prostate
[10] = system: EKVX NSCLC
[11] = system: HCC-2998 colon
[12] = system: HCT-116 colon
[13] = system: HCT-15 colon
[14] = system: HL-60(TB) leukemia
[15] = system: HOP-62 NSCLC
[16] = system: HOP-92 NSCLC
[17] = system: HS 578T breast
[18] = system: HT29 colon
[19] = system: IGROV1 ovarian
[20] = system: K-562 leukemia
[21] = system: KM12 colon
[22] = system: LOX IMVI melanoma
[23] = system: M14 melanoma
[24] = system: MALME-3M melanoma
[25] = system: MCF7 breast
[26] = system: MDA-MB-231 breast
[27] = system: MDA-MB-435
[28] = system: MDA-N
[29] = system: MOLT-4 leukemia
[30] = system: NCI-H226 lung
[31] = system: NCI-H23 lung
[32] = system: NCI-H460 lung
[33] = system: NCI-H522 lung
[34] = system: NCI/ADR-RES ovarian
[35] = system: OVCAR-3 ovarian
[36] = system: OVCAR-4 ovarian
[37] = system: OVCAR-5 ovarian
[38] = system: OVCAR-8 ovarian
[39] = system: PC-3 prostate
[40] = system: RPMI-8226 leukemia
[41] = system: RXF 393 renal
[42] = system: SF-268 CNS
[43] = system: SF-295 CNS
[44] = system: SF-539 CNS
[45] = system: SK-MEL-2 melanoma
[46] = system: SK-MEL-28 melanoma
[47] = system: SK-MEL-5 melanoma
[48] = system: SK-OV-3 ovarian
[49] = system: SN12C renal
[50] = system: SNB-19 CNS
[51] = system: SNB-75 CNS
[52] = system: SR leukemia
[53] = system: SW-620 colon
[54] = system: T-47D breast
[55] = system: TK-10 renal
[56] = system: U251 CNS
[57] = system: UACC-257 melanoma
[58] = system: UACC-62 melanoma
[59] = system: UO-31 renal

CCOC(=O)C(=CNc1ccc(NC2=NCC(C)S2)cc1)C(=O)OCC (centres undefined)
TGI [1]: 84.6 µM | TGI [2]: > 100 µM | TGI [3]: > 100 µM | TGI [4]: > 100 µM | TGI [5]: 48.9 µM | TGI [6]: > 100 µM | TGI [7]: 1.84 µM | TGI [8]: > 100 µM | TGI [9]: > 100 µM | TGI [10]: > 100 µM | TGI [11]: > 100 µM | TGI [12]: > 100 µM | TGI [13]: > 100 µM | TGI [14]: 16.4 µM | TGI [15]: > 100 µM | TGI [16]: > 86.7 µM | TGI [17]: 74.8 µM | TGI [18]: > 84.2 µM | TGI [19]: > 100 µM | TGI [20]: 4.69 µM | TGI [21]: > 87.9 µM | TGI [22]: > 85.4 µM | TGI [23]: > 90.7 µM | TGI [24]: 96.2 µM | TGI [25]: > 100 µM | TGI [26]: > 100 µM | TGI [27]: 60.2 µM | TGI [28]: > 100 µM | TGI [29]: 30 µM | TGI [30]: > 100 µM | TGI [31]: > 100 µM | TGI [32]: > 100 µM | TGI [33]: 36.8 µM | TGI [34]: 95.1 µM | TGI [35]: 60.1 µM | TGI [36]: > 51.8 µM | TGI [37]: > 100 µM | TGI [38]: > 100 µM | TGI [39]: 62.9 µM | TGI [40]: 32.3 µM | TGI [41]: 97.1 µM | TGI [42]: > 100 µM | TGI [43]: > 100 µM | TGI [44]: > 100 µM | TGI [45]: 50.7 µM | TGI [46]: > 100 µM | TGI [47]: 34.5 µM | TGI [48]: > 100 µM | TGI [49]: > 100 µM | TGI [50]: > 100 µM | TGI [51]: > 74.1 µM | TGI [52]: > 69.8 µM | TGI [53]: > 100 µM | TGI [54]: > 84.5 µM | TGI [55]: > 100 µM | TGI [56]: > 100 µM | TGI [57]: > 100 µM | TGI [58]: 26.8 µM | TGI [59]: 73 µM
